We go through 54 compounds from patent US20160038485A1, “PHASE 2 INDUCERS AND RELATED SIGNALING PATHWAYS PROTECT CARTILAGE AGAINST INFLAMMATION, APOPTOSIS AND STRESS” (THE JOHNS HOPKINS UNIVERSITY, priority 2006, published 2016).

The first experiment relates to T/C28a2 chondrocytic cells. Description: DNA microarray analysis of shear-induced mRNA response of chondrocytes. It counts as cell-based, human. Conditions: Wy14643 10 μM; 20 dyn/cm^2, 48 hours; cDNA microarray. Here is the method:
(§1) Cell Culture and Shear Stress Exposure: Human T/C28a2 chondrocytic cells were grown (37° C., 5% CO2) in 1:1 Ham's F-12/DMEM (Biowhittaker) supplemented with 10% FBS. Prior to shear exposure, T/C28a2 cells were incubated for 24 hours in serum-free medium containing 1% Nutridoma-SP (Roche), a low-protein serum replacement that maintains chondrocyte phenotype. Primary HUVECs were cultured as described (Goldring, M. B., 2004). T/C28a2 cells were exposed to shear stress in media containing 1% Nutridoma by use of a parallel-plate flow chamber with a recirculating flow loop (37° C., 5% CO2) (10). HUVECs were treated similarly by circulating media supplemented with 10% FBS.
Microarray Hybridization and Analysis: Cy-3- and Cy-5-labeled probes were mixed, dried, resuspended in hybridization buffer (50% formamide, 10×SSC, 0.2% SDS, COT-I DNA, Poly(A)-DNA), and denatured. The probes were added to microarray slides printed with a set of 32,448 or 39,936 expressed sequence tags (ESTs), allowed to hybridize at 42° C. overnight, and processed as described (Abulencia, J. P., et al. 2003. Hegde, P. et al. 2000). Expression ratios were derived using TIGR Spotfinder (Abulencia, J. P. et al. 2003, Hegde, P. et al. 2000). Differentially expressed genes were identified by Significance Analysis of Microarrays, and analyzed with the software TMEV (Abulencia, J. P. et al. 2003).
(§2) Quantitative Real-Time PCR (qRT-PCR) was used to verify DNA microarray data. Incorporation of SYBR Green into PCR products was monitored with the 7900HT detection system.
Take `Cc1cccc(Nc2cc(Cl)nc(SCC(=O)O)n2)c1C` [Wy14643]: the “shear-mediated up-regulation of JNK2 mRNA levels” value is listed as “nearly abrogates” and the “shear-mediated up-regulation of c-Jun mRNA levels” value is on record as “nearly abrogates”.

The subject of another experiment is T/C-28a2 cells. Nature of the experiment: qRT-PCR transcript ratios (shear/static) in chondrocytes. Conditions: Wy14643 10 μM pre-treatment; 20 dyn/cm^2, 48 h; mean + range (n = 2). It counts as cell-based, human. The protocol: as §1, §2
Cell Culture and shear stress exposure, microarray hybridization and analysis and quantitative real-time PCR (qRT-PCR) were carried out as in example 1. T/C-28a2 chondrocytes were pre-treated with a specific PPARα ligand, Wy14643 (10 μM) for 2 hours before being subjected to a shear stress level of 20 dyn/cm^2 for 48 hours in the presence of Wy14643. This pharmacological intervention abolished the shear-induced down regulation of the mRNA levels of Nrf2 and phase 2 genes and apoptosis as evidenced by the abrogation of shear-mediated changes of Bcl-w and pro-caspase-9 mRNA expression.
For the compound `Cc1cccc(Nc2cc(Cl)nc(SCC(=O)O)n2)c1C` [Wy14643], the “Bcl-w (Bcl-2-like protein 2) qRT-PCR Transcript Ratio (Shear/Static)” value was determined as 1.0 ± 0.1, the “COX-2 (cyclooxygenase-2) qRT-PCR Transcript Ratio (Shear/Static)” value came to 1.3 ± 0.2, the “Caspase-9 precursor qRT-PCR Transcript Ratio (Shear/Static)” value is given as 1.0 ± 0.1 and the “GCLR (glutamate-cysteine ligase) qRT-PCR Transcript Ratio (Shear/Static)” value came to 1.2 ± 0.2. The “GST μ1 (glutathione-S-transferase class μ1) qRT-PCR Transcript Ratio (Shear/Static)” value stood at 1.3 ± 0.2, the “MMP-9 (matrix metalloproteinase-9) qRT-PCR Transcript Ratio (Shear/Static)” value is on record as 1.3 ± 0.1, the “NQO1 (NAD(P)H:quinone oxidoreductase-1) qRT-PCR Transcript Ratio (Shear/Static)” value was 1.0 ± 0.1 and the “Nrf2 (NF-E2 related factor 2) qRT-PCR Transcript Ratio (Shear/Static)” value is listed as 1.6 ± 0.1. Further, the “PGE2 Receptor Subtype EP4 qRT-PCR Transcript Ratio (Shear/Static)” value was 0.6 ± 0.1, the “PPARα qRT-PCR Transcript Ratio (Shear/Static)” value amounted to 1.1 ± 0.2 and the “iNOS (inducible Nitric Oxide Synthase II) qRT-PCR Transcript Ratio (Shear/Static)” value is listed as 1.0 ± 0.2.

Still in this experiment, the particulars now being: Wy14643 10 μM, 2 hours before and during 20 dyn/cm^2, 48 hours.
`Cc1cccc(Nc2cc(Cl)nc(SCC(=O)O)n2)c1C` [Wy14643]: the “shear-induced down regulation of the mRNA levels of Nrf2 and phase 2 genes” value is “abolished”.

Still in this experiment, the particulars now being: Wy14643 10 μM; 20 dyn/cm^2, 48 hours.
In the case of `Cc1cccc(Nc2cc(Cl)nc(SCC(=O)O)n2)c1C` [Wy14643], the “shear-mediated changes of Bcl-w and pro-caspase-9 mRNA expression (apoptosis)” value is reported as “abrogation”.

The next experiment deals with NQO1. Nature of the experiment: NQO1 enzyme activity in shear-activated chondrocytes. It counts as cell-based, human. Conditions: T/C28a2, high shear (20 dyn/cm^2); SFN 1.25 μM, D3T 5 μM, CAY10404 6.75 μM, NS398 30 μM. The protocol: as §1
(§3) Cell Viability, NQO1 activity, Glutathione levels, and Prostaglandin (PG)E2 production: Cell viability was monitored with the MTT assay (Gao, X. et al. 2001). NQO1 activity and total GSH (oxidized and reduced) levels of cell lysates were determined in 96-well microtiter plates. PGE2 levels were determined in media by the Prostaglandin E2 monoclonal EIA kit (Cayman Chemical).
As to `CS(=O)(=O)Nc1ccc([N+](=O)[O-])cc1OC1CCCCC1` [NS398], the “shear-induced suppression of NQO1 activity” value is “indistinguishable from those with CAY10404”.

As to `CS(=O)(=O)c1ccc(-c2noc(C(F)(F)F)c2-c2ccccc2)cc1` [CAY10404], the “shear-induced suppression of NQO1 activity” value is on record as “reduced the shear-induced down-regulation”.

Another experiment concerns T/C28a2 cells. Description: Total glutathione (GSH) levels in shear-activated chondrocytes. It counts as cell-based, human. Conditions: T/C28a2, high shear (20 dyn/cm^2); SFN 1.25 μM, CAY10404 6.75 μM, NS398 30 μM. Here is the method:
as §1, §3
For `CS(=O)(=O)Nc1ccc([N+](=O)[O-])cc1OC1CCCCC1` [NS398], the “shear-induced suppression of intracellular GSH levels” value was “indistinguishable from those with CAY10404”.

Consider `CS(=O)(=O)c1ccc(-c2noc(C(F)(F)F)c2-c2ccccc2)cc1` [CAY10404], for which the “shear-induced suppression of intracellular GSH levels” value was “reduced the shear-induced down-regulation”.

The next experiment relates to T/C28a2 cells. Nature of the experiment: Shear-induced apoptosis: DNA fragmentation (TUNEL) and mitochondrial membrane depolarization. It counts as cell-based, human. The note with it: 20 dyn/cm^2, 48 h; D3T 5 μM, CAY10404 6.75 μM, NS398 30 μM. The protocol:
as §1
DNA Fragmentation and Mitochondrial Depolarization: For DNA fragmentation, cells were fixed in 4% paraformaldehyde for 1 hour at 25° C., washed 2× in PBS, and permeabilized briefly in 0.1% Triton-X100/0.1% sodium citrate on ice. Subsequently, cells were washed 2× in PBS, labeled using the In Situ Cell Death Kit (Roche), and analyzed by flow cytometry. To quantify Mitochondrial Membrane Potential (MMP), cells were labeled using the MitoProbe JC-I Kit (Molecular Probes).
For the compound `CS(=O)(=O)Nc1ccc([N+](=O)[O-])cc1OC1CCCCC1` [NS398], the “shear-induced apoptosis (DNA fragmentation TUNEL, mitochondrial membrane depolarization MMP)” value is on record as “marked reduction”.

For `CS(=O)(=O)c1ccc(-c2noc(C(F)(F)F)c2-c2ccccc2)cc1` [CAY10404], the “shear-induced apoptosis (DNA fragmentation TUNEL, mitochondrial membrane depolarization MMP)” value is “marked reduction”.

The subject of another experiment is phase 2 genes.
Experiment: not given
The note with it: cited from earlier work.
In the case of `O=C(O)CCCCN=C=S` [GHP 1103], the CD was 2.19 µM.

For the compound `CC(=O)CCCCN=C=S` [GHP 1105], the CD was 0.23 µM.

Regarding `CC(=O)C1CC2CC(N=C=S)C1C2` (stereo not drawn) [GHP 1066], the CD was 0.26 µM.

As for `CS(=O)(=O)[C@H]1CCC[C@@H](CN=C=S)C1` [GHP 1080], the CD is 0.41 µM.

With `CSC(=O)CCCCN=C=S` [GHP 1104], the CD is 2.8 µM.

As for `OC1CC2CC(N=C=S)C1C2` (stereo not drawn) [GHP 1076], the CD was 1.10 µM.

`N#CC1CC2CC1CC2N=C=S` (stereo not drawn) [GHP 1071]: the CD is 0.59 µM.

As to `C[S+]([O-])CCCN=C=S` (stereo not drawn) [GHP 1009], the CD was 2.36 µM.

Consider `S=C=NCc1ccccc1Cl` [GHP 1048], for which the CD was 14.1 µM.

As for `CC(=O)C1CC2CC1CC2N=C=S` (stereo not drawn) [GHP 1067], the CD is 0.43 µM.

Turning to `COc1cccc(OC)c1CN=C=S` [GHP 1044], the CD was 5.8 µM.

Turning to `CCOC(=O)CN=C=S` [GHP 1061], the CD was 8.2 µM.

Take `S=C=Nc1ccccc1Cl` [GHP 1032]: the CD is 100 µM.

On to `CSc1ccccc1CN=C=S` [GHP 1046], for which the CD is 6.8 µM.

Consider `CS(=O)(=O)CCCN=C=S` [GHP 1010], for which the CD is 1.32 µM.

Take `CS(=O)(=O)C1CC2CC1CC2N=C=S` (stereo not drawn) [GHP 1064]: the CD is 0.66 µM.

Consider `CSCCCCCN=C=S` [GHP 1001], for which the CD was 1.71 µM.

Turning to `S=C=NC1CCc2ccccc21` (stereo not drawn) [GHP 1052], the CD was 38.9 µM.

In the case of `S=C=NCc1ccccc1Br` [GHP 1049], the CD was 12.5 µM.

For `N#CCCCCN=C=S` [GHP 1101], the CD was 1.97 µM.

As to `Cc1ccccc1CN=C=S` [GHP 1050], the CD is 3.7 µM.

Regarding `COC(=O)C1CC2CC(N=C=S)C1C2` (stereo not drawn) [GHP 1070], the CD was 1.6 µM.

As for `CSCc1ccccc1CN=C=S` [GHP 1021], the CD is 4.3 µM.

As for `CS(=O)(=O)[C@H]1CCC[C@H](CN=C=S)C1` [GHP 1079], the CD is 0.48 µM.

On to `CCCCC(=O)CCCCN=C=S` [GHP 1081], for which the CD was 2.0 µM.

Take `CC(O)C1CC2CC1CC2N=C=S` (stereo not drawn) [GHP 1075]: the CD is 0.45 µM.

In the case of `COc1cccc(CN=C=S)c1` [GHP 1042], the CD is 8.65 µM.

Regarding `COc1ccc(CN=C=S)cc1` [GHP 1043], the CD was 25 µM.

With `O=CNc1ccc(N=C=S)cc1` [GHP 1033], the CD is 100 µM.

Turning to `CC(O)CCCCN=C=S` (stereo not drawn) [GHP 1106], the CD is 0.35 µM.

Consider `CSc1ccccc1CCN=C=S` [GHP 1022], for which the CD was 7.4 µM.

As for `COc1ccccc1N=C=S` [GHP 1031], the CD is 100 µM.

As for `CP(C)(=O)CCCCN=C=S` [GHP 1078], the CD was 0.43 µM.

For the compound `COc1ccccc1CN=C=S` [GHP 1041], the CD was 2.41 µM.

Consider `COC(=O)CCCCN=C=S` [GHP 1102], for which the CD is 2.81 µM.

Consider `CN(C)c1ccccc1CN=C=S` [GHP 1045], for which the CD is 12.5 µM.

As to `CS(=O)(=O)C1CC2CC(N=C=S)C1C2` (stereo not drawn) [GHP 1068], the CD was 0.15 µM.

For `CCOC(=O)C(CCSC)N=C=S` (stereo not drawn) [GHP 1074], the CD is 2.64 µM.

For the compound `Fc1ccccc1CN=C=S` [GHP 1047], the CD was 13.1 µM.

For the compound `CS(=O)(=O)CCCCCN=C=S` [GHP 1003], the CD was 0.98 µM.

Consider `CS(=O)(=O)CCCCN=C=S` [GHP 1007], for which the CD is 0.82 µM.

`O=[N+]([O-])C1CC2CC1CC2N=C=S` (stereo not drawn) [GHP 1072]: the CD was 1.05 µM.

Consider `CCOc1ccccc1CN=C=S` [GHP 1051], for which the CD was 2.5 µM.

Take `C[S+]([O-])CCCCN=C=S` (stereo not drawn) [GHP 1005]: the CD is 0.20 µM.

On to `CSCCc1ccccc1N=C=S` [GHP 1023], for which the CD was 100 µM.

In the case of `C[S+]([O-])CCCCCN=C=S` (stereo not drawn) [GHP 1002], the CD is 0.94 µM.

Turning to `COC(=O)C1CC2CC(N=C=S)C1C2` (stereo not drawn) [GHP 1069], the CD was 0.68 µM.

Consider `CSCCCN=C=S` [GHP 1008], for which the CD was 3.52 µM.

`CCc1ccccc1CN=C=S` [GHP 1053]: the CD was 12.5 µM.

Turning to `CS(=O)(=O)[C@H]1CC[C@@H](N=C=S)CC1` [GHF 1073], the CD is 0.44 µM.

On to `OC1CC2CC1CC2N=C=S` (stereo not drawn) [GHP 1077], for which the CD is 1.85 µM.
